Measurements reported in paper PMC6435570, “Zafirlukast Is a Dual Modulator of Human Soluble Epoxide Hydrolase and Peroxisome Proliferator-Activated Receptor γ” (Frontiers in Pharmacology, 2019).
Several values for one entry are separate records, joined by “and”; a condition that tells them apart may be missing. Equal entries are not always repeated. Entries after “also recorded” stand apart in the source; their conditions may differ.

Tests used:
[1] = parameters: method as in Brocks et al., 1996; Knorr et al., 2001; Karonen et al., 2012; details: ref Brocks et al., 1996; Knorr et al., 2001; Karonen et al., 2012; cited from earlier work
[2] = parameters: method as in Brocks et al., 1996; Knorr et al., 2001; Karonen et al., 2012; details: single oral dose of 20 mg; ref Brocks et al., 1996; Knorr et al., 2001; Karonen et al., 2012; cited from earlier work
3T3-L1 cells = experiment: 3T3-L1 adipocyte differentiation, Oil Red O lipid accumulation; type: cell-based, murine; details: differentiation cocktail plus zafirlukast or montelukast 1, 5, 10 μM or rosiglitazone 2 μM; 14 days
Protocol: 3T3-L1 cells were differentiated into adipocytes for 14 days according to the protocol of [Zebisch et al. (2012)]. For this, cells were seeded in 6-well plates ([…]) and differentiation was induced after 48 h by addition of a differentiation cocktail containing 1 μg/mL insulin, 0.25 μM dexamethasone and 0.5 mM isobutylmethylxanthine (IBMX) in DMEM supplemented with 10% FCS and 1% PS. […] After 2 days, medium was replaced by DMEM supplemented with 10% FCS, 1% PS and 1 μg/mL insulin for 2 more days. Afterwards, cells were kept for lipid droplet accumulation in DMEM containing 10% FCS and 1% PS until day 15. Media were replaced every other day.
Differentiated 3T3-L1 cells were washed with PBS and subsequently fixed for 60 min with formaldehyde (4% in PBS). Afterwards, cells were thoroughly rinsed with 60% isopropanol and incubated with Oil Red O solution (0.3% in 60% isopropanol) for 120 min. This was followed by the removal of the staining solution and thorough rinsing of the cell layer with ultrapure water. Finally, the plates were dried and pictures of the stained cell layers were taken.
For quantification of the accumulated dye, 3T3-L1 cells were seeded in 24-well plates (0.55 × 10^5/well) instead of 6-wells and the differentiation was carried out as described in the section ‘Adipocyte differentiation’. After 14 days of differentiation, cells were fixed and stained as described above. […] 100 μl of dye extract were transferred to a 96-well plate and absorbance was measured (λabs = 510 nm) by an Infinite F200 plate reader (Tecan Group Ltd., Männedorf, Switzerland). […]
As master regulator of adipocyte differentiation in men and mice, PPARγ plays a crucial role in the cell’s commitment to the adipocyte lineage by controlling important functions such as intracellular biosynthesis, transport and accumulation of lipids. […] Upon differentiation, different parameters such as lipid accumulation and PPARγ target gene expression can be assessed to investigate the PPARγ activating potential of the compounds of interest. […]

recombinant human sEH = biological target: T1, recombinant human sEH (Homo sapiens, UniProt P34913); experiment: Recombinant sEH activity (PHOME fluorescence assay); type: biochemical; details: PHOME 50 μM, 30 min preincubation at RT, read-out: sEH rec. IC50
T1 sequence (P34913 1-555): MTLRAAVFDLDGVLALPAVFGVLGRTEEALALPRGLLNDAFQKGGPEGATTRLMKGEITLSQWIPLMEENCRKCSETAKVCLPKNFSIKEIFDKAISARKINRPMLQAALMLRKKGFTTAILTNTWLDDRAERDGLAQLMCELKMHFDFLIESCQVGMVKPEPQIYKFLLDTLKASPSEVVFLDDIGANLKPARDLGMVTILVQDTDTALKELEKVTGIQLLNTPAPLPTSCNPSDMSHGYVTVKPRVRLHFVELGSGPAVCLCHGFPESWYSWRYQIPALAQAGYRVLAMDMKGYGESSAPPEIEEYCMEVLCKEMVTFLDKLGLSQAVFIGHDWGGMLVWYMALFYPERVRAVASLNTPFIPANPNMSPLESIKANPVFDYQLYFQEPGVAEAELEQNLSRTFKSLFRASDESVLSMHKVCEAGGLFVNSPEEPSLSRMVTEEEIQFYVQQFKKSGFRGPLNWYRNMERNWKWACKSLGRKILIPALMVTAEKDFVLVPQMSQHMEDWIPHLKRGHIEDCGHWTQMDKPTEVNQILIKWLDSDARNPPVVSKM
Protocol: For determination of IC50 values of recombinant human sEH a 96-well fluorescence-based assay system was used as described before ([Blöcher et al., 2016a]). In brief, non-fluorescent PHOME (3 phenylcyano-(6-methoxy-2-naphthalenyl)methyl ester 2-oxiraneacetic acid, Cayman Chemicals, Ann Arbor, MI, United States) was used as substrate, which is hydrolyzed by sEH to the fluorescent 6-methoxynaphthaldehyde ([Rau et al., 2006]). The formation of the fluorescent product was measured (λem = 330 nm, λex = 465 nm) by an Infinite F200 Pro plate reader (Tecan Group Ltd., Männedorf, Switzerland). For that purpose, 2 μg recombinant human sEH in 100 μl bis-Tris buffer (pH 7, 0.1 mg/mL BSA, 0.01% Triton-X 100) was applied per well. This protein solution was then incubated with different concentrations of the test compounds for 30 min at RT. After this, 10 μL of the substrate were added (final concentration 50 μM). The formation of 6-methoxynaphthaldehyde was monitored for 30 min. All concentrations were tested in triplicate wells.

sEH (HEP-G2) = biological target: T2, sEH (HEP-G2) (Homo sapiens, UniProt P34913); experiment: sEH activity in HEP-G2 cell lysates (14(15)-EET-d11 to DHET-d11, LC-MS/MS); type: biochemical; details: HEP-G2 cell homogenate, (±)14(15)-EET-d11 substrate, DHET formation by LC-MS/MS
T2 construct: 1 μg of total cell homogenate diluted in 100 μl of PBS; endogenous in cells; host or cells: HEP-G2
T2 sequence (P34913 1-555): T1 sequence (P34913 1-555)
Protocol: Quantification of cellular sEH metabolic activity was performed as described by [Zha et al. (2014)]. For this, HEP-G2 cells were harvested, washed twice with PBS and sonicated in PBS for disruption of cell integrity. Then, 1 μg of total cell homogenate diluted in 100 μl of PBS containing 0.1 mg/ml BSA was incubated with the compounds or vehicle for 15 min at 37°C. After this, 25 ng (±)14(15)-EET-d11 (Cayman Chemical, Ann Arbor, MI, United States) were added per sample and the incubation was continued for additional 10 min at 37°C. A blank was performed using PBS (containing 0,1 mg/mL BSA). The reactions were stopped by adding 100 μL of ice cold methanol. After centrifugation (2000 rpm, 4°C, 5 min), supernatants were analyzed by LC-MS/MS and the amounts of (±)14(15)-EET-d11 and the corresponding (±)14(15)-DHET-d11 were determined.
14(15)-EET-d11 and 14(15)-DHET-d11 content of the extracted samples were analyzed employing liquid chromatography tandem mass spectroscopy (LC-MS/MS). The LC/MS-MS system comprised an API 5500 QTrap (Sciex, Darmstadt, Germany), equipped with a Turbo-V-source operating in negative ESI mode, an Agilent 1200 binary HPLC pump and degasser (Agilent, Waldbronn, Germany) and an HTC Pal autosampler (Chromtech, Idstein, Germany) fitted with a 25 μL LEAP syringe (Axel Semrau GmbH, Sprockhövel, Germany). High purity nitrogen for the mass spectrometer was produced by a NGM 22-LC/MS nitrogen generator (cmc Instruments, Eschborn, Germany). All substances were obtained from Cayman Chemical, Ann Arbor, MI, United States. Stock solutions with 2,500 ng/mL of both analytes were prepared in methanol. Working standards were obtained by further dilution with a concentration range of 0.1–250 ng/mL for 14(15)-EET-d11 and 14(15)-DHET-d11. Sample extraction was performed with liquid–liquid-extraction. Therefore, 150 μL of matrix homogenates were gently mixed with 20 μL of internal standard [14(15)-EET and 14(15)-DHET all with a concentration of 100 ng/ml in methanol], and were extracted twice with 600 μL of ethyl acetate. Samples for standard curve and quality control were prepared similarly, instead of 150 μL of matrix homogenates, 150 μL PBS were added. Further 20 μL methanol, 20 μL working standard and 20 μL internal standard were added. The organic phase was removed at a temperature of 45°C under a gentle stream of nitrogen. The residues were reconstituted with 50 μL of methanol/water/(50:50, v/v), centrifuged for 2 min at 10,000 g and then transferred to glass vials (Macherey-Nagel, Düren, Germany) prior to injection into the LC-MS/MS system. For the chromatographic separation a Gemini NX C18 column and pre-column were used (150 mm × 2 mm i.d., 5 μm particle size and 110 Å pore size from Phenomenex, Aschaffenburg, Germany). A linear gradient was employed at a flow rate of 0.5 mL/min mobile phase with a total run time of 17.5 min. Mobile phase was A water/ammonia (100:0.05, v/v) and B acetonitrile/ammonia (100:0.05, v/v). The gradient started from 85% A to 10% within 12 min. This was held for 1 min at 10% A. Within 0.5 min the mobile phase shifted back to 85% A and was held for 3.5 min to equilibrate the column for the next sample. The injection volume of samples was 20 μL. Quantification was performed with Analyst Software V 1.5.1 (Sciex, Darmstadt, Germany) employing the internal standard method (isotope- dilution mass spectrometry). Ratios of analyte peak area and internal standard area (y-axis) were plotted against concentration (x-axis) and calibration curves were calculated by least square regression with 1/concentration^2 weighting.

[3] = biological target: T3, human PPARδ ligand binding domain (Homo sapiens, UniProt Q03181); experiment: PPAR reporter gene assay (Gal4 hybrid, PPARδ); type: cell-based; details: HEK-293T, reference L165,041 1 μM, tested up to 10 μM
T3 construct: expressed in transfected cells; host or cells: HEK-293T
T3 sequence (Q03181 211-439 limits assumed): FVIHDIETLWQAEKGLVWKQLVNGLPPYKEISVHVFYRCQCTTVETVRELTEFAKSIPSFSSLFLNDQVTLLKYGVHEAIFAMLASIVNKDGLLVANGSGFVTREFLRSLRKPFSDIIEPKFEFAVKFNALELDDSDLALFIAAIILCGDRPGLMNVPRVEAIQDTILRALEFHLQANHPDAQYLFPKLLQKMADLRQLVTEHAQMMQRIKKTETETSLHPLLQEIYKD
Protocol: HEK-293T cells were seeded in 96-well plates (2.5 × 10^4 cells/well) and were allowed to adhere overnight. Before transfection, medium was changed to Opti-MEM without supplements. Transient plasmid transfection was carried out using Lipofectamine LTX reagent (Invitrogen, Carlsbad, CA, United States) according to the manufacturer’s protocol with pFR-Luc (Stratagene, La Jolla, CA, United States), pRL-SV40 (Promega, Fitchburg, MA, United States) and pFA-CMV-PPAR-LBD ([Rau et al., 2006]). 5 h after transfection, medium was changed to Opti-MEM supplemented with penicillin (100 U/mL) and streptomycin (100 μg/mL), now additionally containing 0.1% DMSO and the respective test compound or 0.1% DMSO alone as untreated control. Each concentration was tested in triplicates and each experiment was repeated independently at least four times. Following overnight (12–16 h) incubation with the test compounds, cells were assayed for luciferase activity using the Dual-Glo^TM Luciferase Assay System (Promega, Fitchburg, MA, United States) according to the manufacturer’s protocol. Luminescence was measured with an Infinite M200 luminometer (Tecan Group Ltd., Männedorf, Switzerland). Normalization of transfection efficiency and cell growth was done by division of firefly luciferase data by renilla luciferase data and multiplying the value by 1000 resulting in relative light units (RLU). Fold activation was obtained by dividing the mean RLU of a test compound at a respective concentration by the mean RLU of untreated control. Relative activation was obtained by dividing the fold activation of a test compound at a respective concentration by the fold activation of the respective PPARα, γ or δ full agonist GW-7647, pioglitazone or L165,041 at 1 μM. EC50 and standard deviation were calculated with the mean relative activation values of at least four independent experiments by SigmaPlot 10.0 (Systat Software GmbH, Erkrath, Germany) using a four parameter logistic regression. […]

| IC50 (recombinant human sEH) [µM] | IC50 (sEH (HEP-G2)) | PPARδ EC50 [3] | Structure (SMILES) | Plasma protein binding [1] | Peak serum level [2] | Lipid accumulation (Oil Red O staining) (3T3-L1 cells) |
| --- | --- | --- | --- | --- | --- | --- |
| 1.97 ± 0.08 | 0.8 µM and 0.82 µM | i.a. @ 10 μM | COc1cc(C(=O)NS(=O)(=O)c2ccccc2C)ccc1Cc1cn(C)c2ccc(NC(=O)OC3CCCC3)cc12 [Zafirlukast, zafirlukast] | High | about 1 μM | induced lipid accumulation in a dose-dependent manner, but to a lesser extend compared to rosiglitazone |
|  | 1.9 µM and 1.95 µM | i.a. @ 10 μM | CC(C)(O)c1ccccc1CC[C@@H](SCC1(CC(=O)O)CC1)c1cccc(/C=C/c2ccc3ccc(Cl)cc3n2)c1 [Montelukast, montelukast] |  |  | did not trigger any lipid accumulation; also recorded: did not induce cell lipid accumulation |
